The test concerns the target T1, recombinant full-length USP7 (Homo sapiens, UniProt Q93009).
T1 construct: A 25 μl reaction volume containing recombinant full-length USP7 (62 pM)
Put plainly: USP7-mediated ubiquitin-rhodamine cleavage assay. Format: biochemical. The following applies: recombinant full-length USP7 62 pM, ubiquitin-rhodamine 100 nM, 1 hour reaction at room temperature. The protocol: In the case of the USP7 deubiquitylating enzyme, the IC50 of an USP7 inhibiting compound is the concentration of the compound that inhibits 50% of the activity observed in a USP7-mediated ubiquitin-rhodamine cleavage assay.
For the USP7 inhibitors disclosed herein, their potency was measured using the following test method.
A 25 μl reaction volume containing recombinant full-length USP7 (62 pM) in 20 mM HEPES pH 7.3, 150 mM NaCl, 1 mM TCEP, and 125 μg/ml BSA was assembled in wells of 384 well plates. Test compounds were dispensed with a Hewlett Packard D300 digital dispenser (1% final DMSO). Following a 30-minute incubation at room temperature, ubiquitin-rhodamine was added with the D300 to a final concentration of 100 nM and the reaction was allowed to proceed for 1 hour at room temperature protected from light. The reaction was stopped by the addition of 5 μl 1M acetic acid. Rhodamine fluorescence was measured using an Envision plate reader (Perkin Elmer) and IC50 values were determined by non-linear regression using a 4-parameter fit in a Dotmatics (Bishops Stortford, Hertfordshire, England) software package.

The mark [1] stands for this setting: 30-minute pre-incubation, read-out: Potency (USP7 IC50).
Where [2] appears, read: 30-minute incubation with compound, read-out: Potency: USP7 IC50.

Counter-ions that a name gives are not always drawn. Like-named read-outs stand apart in the source and are kept apart here.

T1 sequence (Q93009 whole entry): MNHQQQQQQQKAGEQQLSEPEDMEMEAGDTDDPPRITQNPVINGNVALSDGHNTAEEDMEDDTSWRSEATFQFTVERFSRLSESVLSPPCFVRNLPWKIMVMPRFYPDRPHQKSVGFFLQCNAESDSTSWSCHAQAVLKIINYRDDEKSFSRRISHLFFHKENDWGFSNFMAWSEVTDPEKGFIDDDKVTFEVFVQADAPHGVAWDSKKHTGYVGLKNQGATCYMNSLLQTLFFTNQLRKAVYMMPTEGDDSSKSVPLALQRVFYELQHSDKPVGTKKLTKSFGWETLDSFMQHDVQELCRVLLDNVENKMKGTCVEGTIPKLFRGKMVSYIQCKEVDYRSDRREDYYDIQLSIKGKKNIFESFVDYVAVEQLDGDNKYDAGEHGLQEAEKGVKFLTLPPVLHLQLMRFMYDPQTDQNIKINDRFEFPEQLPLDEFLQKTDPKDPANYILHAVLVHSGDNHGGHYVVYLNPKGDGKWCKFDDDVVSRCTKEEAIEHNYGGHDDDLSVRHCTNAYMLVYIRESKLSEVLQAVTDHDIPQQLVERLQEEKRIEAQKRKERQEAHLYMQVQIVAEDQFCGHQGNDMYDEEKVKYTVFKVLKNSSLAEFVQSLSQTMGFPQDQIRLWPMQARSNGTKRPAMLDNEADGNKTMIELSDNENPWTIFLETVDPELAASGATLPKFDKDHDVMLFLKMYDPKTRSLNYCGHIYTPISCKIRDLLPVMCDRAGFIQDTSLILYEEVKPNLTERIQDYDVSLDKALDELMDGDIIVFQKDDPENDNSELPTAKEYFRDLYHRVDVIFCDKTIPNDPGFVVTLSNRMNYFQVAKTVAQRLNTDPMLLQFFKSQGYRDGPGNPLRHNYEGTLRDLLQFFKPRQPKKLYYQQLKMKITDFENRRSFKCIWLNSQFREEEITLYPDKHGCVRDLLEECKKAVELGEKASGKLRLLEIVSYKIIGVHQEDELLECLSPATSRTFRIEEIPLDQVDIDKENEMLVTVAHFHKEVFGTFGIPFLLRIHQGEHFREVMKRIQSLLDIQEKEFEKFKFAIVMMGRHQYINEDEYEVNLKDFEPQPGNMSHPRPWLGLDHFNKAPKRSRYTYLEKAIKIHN

With `CCn1ccc(=O)n(Cc2cc3nccc(-c4cc(Cl)cc(C)c4O[C@H]4CCCNC4)c3s2)c1=O` [Example 423, 3-[[7-[5-chloro-3-methyl-2-[[(3S)-3-piperidyl]oxy]phenyl]thieno[3,2-b]pyridin-2-yl]methyl]-1-ethyl-pyrimidine-2,4-dione], the IC50 (as a rule, the point on the concentration scale where inhibition reaches its midpoint) under setting [1] was under 1 µM.

In the case of `Cc1cc(Cl)cc(-c2ccnc3cc(Cn4c(=O)ccn(C)c4=O)sc23)c1OC1CN2CCC1C2` [Example 529, 3-[[7-[2-[[(1R,3R,4S)-1-azabicyclo[2.2.1]heptan-3-yl]oxy]-5-chloro-3-methyl-phenyl]thieno[3,2-b]pyridin-2-yl]methyl]-1-methyl-pyrimidine-2,4-dione], under setting [1], the half-maximal inhibitory concentration (IC50) is under 1 µM.

For the molecule `CO[C@H]1CNC[C@H]1Oc1c(C)cc(Cl)cc1-c1ccnc2cc(CN3C(=O)CCC3=O)sc12` [Example 106, 1-((7-(5-Chloro-2-(((3R,4S)-4-methoxypyrrolidin-3-yl)oxy)-3-methylphenyl)thieno[3,2-b]pyridin-2-yl)methyl)pyrrolidine-2,5-dione], under setting [2], the half-maximal inhibitory concentration (IC50) was under 1 µM.

`Cc1cc(Cl)cc(-c2ccnc3cc(Cn4c(=O)ccn(C)c4=O)sc23)c1OCC1(C(F)F)CNC1` [Example 533, 3-[[7-[5-chloro-2-[[3-(difluoromethyl)azetidin-3-yl]methoxy]-3-methyl-phenyl]thieno[3,2-b]pyridin-2-yl]methyl]-1-methyl-pyrimidine-2,4-dione]: the IC50 under setting [1] is under 1 µM.

With `Cc1cc(Cl)cc(-c2ccnc3cc(CO)sc23)c1O[C@@H]1CCCC[C@@H]1N` [Example 196, (7-(2-(((1R,2S)-2-Aminocyclohexyl)oxy)-5-chloro-3-methylphenyl)thieno[3,2-b]pyridin-2-yl)methanol], the half-maximal inhibitory concentration (IC50) under setting [2] is over 30 µM.

Turning to `Cc1cc(Cl)cc(-c2ccnc3cc(Cn4c(=O)ccn(C)c4=O)sc23)c1OC1CNCC(C)(C)C1` (centres unmarked) [Example 6, 3-((7-(5-Chloro-2-((5,5-dimethylpiperidin-3-yl)oxy)-3-methylphenyl)thieno[3,2-b]pyridin-2-yl)methyl)-1-methylpyrimidine-2,4(1H,3H)-dione], the IC50 under setting [2] is under 1 µM.

`Cc1cc(Cl)cc(-c2ccnc3cc(Cn4c(=O)ccn(C)c4=O)sc23)c1OCC(C)N` (centres unmarked) [Example 554, 3-[[7-[2-(2-aminopropoxy)-5-chloro-3-methyl-phenyl]thieno[3,2-b]pyridin-2-yl]methyl]-1-methyl-pyrimidine-2,4-dione; 2,2,2-trifluoroacetic acid]: the IC50 under setting [1] is under 1 µM.

For the molecule `CCN1CC[C@@H](Oc2c(C)cc(Cl)cc2-c2ccnc3cc(CN4C(=O)CCC4=O)sc23)[C@@H](C)C1` [Example 307, 1-[[7-[5-chloro-2-[[(3S,4R)-1-ethyl-3-methyl-4-piperidyl]oxy]-3-methyl-phenyl]thieno[3,2-b]pyridin-2-yl]methyl]pyrrolidine-2,5-dione], the concentration for half-maximal inhibition (IC50) under setting [2] was under 1 µM.

As for `Cc1cc(Cl)cc(-c2ccnc3cc(CO)sc23)c1OC1CCNCC1` [Example 175, (7-(5-Chloro-3-methyl-2-(piperidin-4-yloxy)phenyl)thieno[3,2-b]pyridin-2-yl)methanol], the IC50 under setting [2] lay within 1 to 10 µM.

For the molecule `Cc1cc(C(F)F)cc(-c2ccnc3cc(Cn4c(=O)ccn(C)c4=O)sc23)c1O[C@H]1CCCNC1` [Example 499, 3-[[7-[5-(difluoromethyl)-3-methyl-2-[[(3S)-3-piperidyl]oxy]phenyl]thieno[3,2-b]pyridin-2-yl]methyl]-1-methyl-pyrimidine-2,4-dione], the IC50 under setting [1] was under 1 µM.

On to `Cc1cc(C#N)cc(-c2ccnc3ccsc23)c1OCC1(C)CNC1` [Example 44, 3-Methyl-4-((3-methylazetidin-3-yl)methoxy)-5-(thieno[3,2-b]pyridin-7-yl)benzonitrile], for which the concentration for half-maximal inhibition (IC50) under setting [2] was 1 to 10 µM.

As for `Cc1cc(Cl)cc(-c2ccnc3cc(CN4C(=O)SC(C)(C)C4=O)sc23)c1O[C@@H]1CNC[C@@H]1F` [Example 145, 3-((7-(5-Chloro-2-(((3R,4S)-4-fluoropyrrolidin-3-yl)oxy)-3-methylphenyl)thieno[3,2-b]pyridin-2-yl)methyl)-5,5-dimethylthiazolidine-2,4-dione], under setting [2], the IC50 was under 1 µM.

`Cc1cc(Cl)cc(-c2ccnc3cc(Cn4c(=O)ccn(CC(F)(F)F)c4=O)sc23)c1O[C@@H]1CCN(CC(F)(F)F)C[C@@H]1C` [Example 638, 3-[[7-[5-chloro-3-methyl-2-[[(3S,4R)-3-methyl-1-(2,2,2-trifluoroethyl)-4-piperidyl]oxy]phenyl]thieno[3,2-b]pyridin-2-yl]methyl]-1-(2,2,2-trifluoroethyl)pyrimidine-2,4-dione]: the IC50 under setting [1] is under 1 µM.

Take `Cc1cc(Cl)cc(-c2ccnc3cc(Cn4c(=O)ccn(C)c4=O)sc23)c1O[C@@H]1CCN(CCO)C[C@@H]1C` [Example 475, 3-[[7-[5-chloro-2-[[(3S,4R)-1-(2-hydroxyethyl)-3-methyl-4-piperidyl]oxy]-3-methyl-phenyl]thieno[3,2-b]pyridin-2-yl]methyl]-1-methyl-pyrimidine-2,4-dione]: the IC50 under setting [1] was under 1 µM.

For `Cc1cc(Cl)cc(-c2ccnc3cc(Cn4c(=O)[nH]cc(F)c4=O)sc23)c1O[C@H]1CCCNC1` [Example 420, 3-[[7-[5-chloro-3-methyl-2-[[(3S)-3-piperidyl]oxy]phenyl]thieno[3,2-b]pyridin-2-yl]methyl]-5-fluoro-1H-pyrimidine-2,4-dione], under setting [1], the IC50 is under 1 µM.

With `Cc1cc(Cl)cc(-c2ccnc3cc(CN4C(=O)CCC4=O)sc23)c1OC1CCN(CC(F)(F)F)CC1` [Example 194, 1-((7-(5-Chloro-3-methyl-2-((1-(2,2,2-trifluoroethyl)piperidin-4-yl)oxy)phenyl)thieno[3,2-b]pyridin-2-yl)methyl)pyrrolidine-2,5-dione], the IC50 under setting [2] lay within 1 to 10 µM.

As for `Cc1cc(Cl)cc(-c2ncnc3cc(Cn4c(=O)ccn(CC(F)(F)F)c4=O)sc23)c1O[C@@H]1CCNC[C@@H]1F` [Example 170, 3-((4-(5-Chloro-2-(((3S,4R)-3-fluoropiperidin-4-yl)oxy)-3-methylphenyl)thieno[3,2-d]pyrimidin-6-yl)methyl)-1-(2,2,2-trifluoroethyl)pyrimidine-2,4(1H,3H)-dione], under setting [2], the 50% inhibitory concentration (IC50) is under 1 µM.

As for `Cc1cc(Cl)cc(-c2ccnc3cc(Cn4c(=O)ccn(C)c4=O)sc23)c1OCCN` [Example 552, 3-[[7-[2-(2-aminoethoxy)-5-chloro-3-methyl-phenyl]thieno[3,2-b]pyridin-2-yl]methyl]-1-methyl-pyrimidine-2,4-dione; 2,2,2-trifluoroacetic acid], under setting [1], the concentration for half-maximal inhibition (IC50) was under 1 µM.

Take `Cc1cc(Cl)cc(-c2ccnc3cc(CCN4C(=O)CCS4(=O)=O)sc23)c1OC1CCNCC1` [Example 219, 2-(2-(7-(5-chloro-3-methyl-2-(piperidin-4-yloxy)phenyl)thieno[3,2-b]pyridin-2-yl)ethyl)isothiazolidin-3-one 1,1-dioxide]: the IC50 under setting [2] lay within 10 to 30 µM.

Consider `Cc1cc2nccc(-c3cc(C#N)cc(C)c3O[C@H]3CCCNC3)c2s1` [Example 182, (S)-3-Methyl-5-(2-methylthieno[3,2-b]pyridin-7-yl)-4-(piperidin-3-yloxy)benzonitrile], for which the half-inhibitory concentration (IC50) under setting [2] fell in the range of 10 to 30 µM.

As for `Cc1cc(C#N)cc(-c2ccnc3ccsc23)c1OCC1(C#N)CNC1` [Example 9, 3-((4-Cyano-2-methyl-6-(thieno[3,2-b]pyridin-7-yl)phenoxy)methyl)azetidine-3-carbonitrile], the IC50 under setting [2] was under 1 µM.

`Cc1cc(Cl)cc(-c2ccnc3cc(CN4C(=O)C5C(C4=O)C5(C)C)sc23)c1O[C@H]1CC[C@H](N)C1` (stereo partly drawn) [Example 394, 3-[[7-[2-[(1S,3S)-3-aminocyclopentoxy]-5-chloro-3-methyl-phenyl]thieno[3,2-b]pyridin-2-yl]methyl]-6,6-dimethyl-3-azabicyclo[3.1.0]hexane-2,4-dione dihydrochloride]: the IC50 under setting [2] was under 1 µM.

Regarding `Cc1cc(Cl)cc(-c2ccnc3cc([C@H](C)N4C(=O)CCC4=O)sc23)c1OC1CCNCC1` [Example 1, (S)-1-(1-(7-(5-Chloro-3-methyl-2-(piperidin-4-yloxy)phenyl)thieno[3,2-b]pyridin-2-yl)ethyl)pyrrolidine-2,5-dione], the IC50 under setting [2] lay within 1 to 10 µM.

On to `Cc1cc(Cl)cc(-c2ccnc3cc(CN4C(=O)C5C(C4=O)C5(C)C)sc23)c1OC1CC(N)C1` (centres unmarked) [Example 357, 3-[[7-[2-(3-aminocyclobutyoxy)-5-chloro-3-methyl-phenyl]thieno[3,2-b]pyridin-2-yl]methyl]-6,6-dimethyl-3-azabicyclo[3.1.0]hexane-2,4-dione; 2,2,2-trifluoroacetic acid], for which, under setting [2], the IC50 is under 1 µM.

Regarding `Cc1cc(Cl)cc(-c2ccnc3cc(Cn4c(=O)ccn(CC(F)(F)F)c4=O)sc23)c1OC1(C)CC(N)C1` (centres unmarked) [Example 640, 3-[[7-[2-(3-amino-1-methyl-cyclobutoxy)-5-chloro-3-methyl-phenyl]thieno[3,2-b]pyridin-2-yl]methyl]-1-(2,2,2-trifluoroethyl)pyrimidine-2,4-dione], under setting [1], the 50% inhibitory concentration (IC50) is under 1 µM.

In the case of `Cc1cc(Cl)cc(-c2ccnc3cc(Cn4c(=O)ccn(C)c4=O)sc23)c1O[C@@H]1CC[C@@H](NCCO)C1` [Example 531, 3-[[7-[5-chloro-2-[(1R,3R)-3-(2-hydroxyethylamino)cyclopentoxy]-3-methyl-phenyl]thieno[3,2-b]pyridin-2-yl]methyl]-1-methyl-pyrimidine-2,4-dione; 2,2,2-trifluoroacetic acid], the IC50 under setting [1] is under 1 µM.
